The nature of this data set: recombinant UMI read abundance after kanamycin selection (control-corrected) (log10(CPM+1)); higher = more efficient recombination; extreme values may be limits of the assay; sequences stand for … in AGTGCAGAGAAAATCGGCCAGTTTTCTCTGCCTGCAGTCCGCATGCCGTGGGACCCCTTGGGTTCTAACCTGTTGCCTAGATTTATGCAGCGGACTGCCTTTCTCCCAAAGTGATAAACCGG…AGGTTGGTTTCACT; site = the 11-nt donor. The method in brief:
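The measure is log10(CPM+1) for recombinant UMIs. These were PCR-amplified across the donor–target junction and sequenced after Escherichia coli carrying a donor and donor-binding-loop pair library and a target plasmid with T7-inducible IS621 bridge recombinase was plated on IPTG (0.07 mM) plus kanamycin or unselected. CPM were averaged over two replicates and scaled by control-derived factors.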
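Note: IS621 bridge recombinase in Escherichia coli cells against a fixed T5 target plasmid.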

Take “GCGTAGCCATGGACCGGTTTTCCCGGTAATCCGTATTTGGG (site GCGTAGCCTCC)”: the “recombinant UMI read abundance (log10)” value was 0.0103. Regarding “GCGTCACCATGGACCGGTTTTCCCGGTAATCCGTATTTGTT (site GCGTCACCTAA)”, the “recombinant UMI read abundance (log10)” value turned out to be 0.0187.

Consider “GCGTTTACATGGACCGGTTTTCCCGGTAATCCGTATTTGCT (site ACGTTTACTAG)”, for which the “recombinant UMI read abundance (log10)” value turned out to be 1.3.

“GCGTTTACATGGACCGGTTTTCCCGGTAATCCGTATTTGCT (site CCGTTTACTAG)”: the “recombinant UMI read abundance (log10)” value is 0. Turning to “GCGTTTACATGGACCGGTTTTCCCGGTAATCCGTATTTGCT (site GCGTTTACTAG)”, the “recombinant UMI read abundance (log10)” value is 1.6. Consider “GCGTTTACATGGACCGGTTTTCCCGGTAATCCGTATTTGCT (site TCGTTTACTAG)”, for which the “recombinant UMI read abundance (log10)” value came to 0.474. With “GCTAAAACATGGACCGGTTTTCCCGGTAATCCGTATTTGCT (site GCAAAAACTAG)”, the “recombinant UMI read abundance (log10)” value was 0. For “GCTAAAACATGGACCGGTTTTCCCGGTAATCCGTATTTGCT (site GCCAAAACTAG)”, the “recombinant UMI read abundance (log10)” value was 0. Then “GCTAAAACATGGACCGGTTTTCCCGGTAATCCGTATTTGCT (site GCGAAAACTAG)”, with 1.28. The value for “GCTAAAACATGGACCGGTTTTCCCGGTAATCCGTATTTGCT (site GCTAAAACTAG)” was 1.01. The value for “GCTAACTCATGGACCGGTTTTCCCGGTAATCCGTATTTGGG (site GCTAACTCTCC)” was 0.0314.

Take “GCTAAGCCATGGACCGGTTTTCCCGGTAATCCGTATTTGGG (site GCAAAGCCTCC)”: the “recombinant UMI read abundance (log10)” value was 0.00437.

Regarding “GCTAAGCCATGGACCGGTTTTCCCGGTAATCCGTATTTGGG (site GCCAAGCCTCC)”, the “recombinant UMI read abundance (log10)” value worked out at 0.0229. Turning to “GCTAAGCCATGGACCGGTTTTCCCGGTAATCCGTATTTGGG (site GCGAAGCCTCC)”, the “recombinant UMI read abundance (log10)” value turned out to be 0.00564.

Turning to “GCTAAGCCATGGACCGGTTTTCCCGGTAATCCGTATTTGGG (site GCTAAGCCTCC)”, the “recombinant UMI read abundance (log10)” value was found to be 0.0172. Turning to “GCTAAGTCATGGACCGGTTTTCCCGGTAATCCGTATTTGTG (site GCTAAGTCTCA)”, the “recombinant UMI read abundance (log10)” value was 2.06. Then “GCTACAGCATGGACCGGTTTTCCCGGTAATCCGTATTTGCC (site GCTACAGCTGG)”, with 1.42; and “GCTACAGCATGGACCGGTTTTCCCGGTAATCCGTATTTGCC (site GCTACCGCTGG)”, with 0; and “GCTACAGCATGGACCGGTTTTCCCGGTAATCCGTATTTGCC (site GCTACGGCTGG)”, with 0.477.

For “GCTACAGCATGGACCGGTTTTCCCGGTAATCCGTATTTGCC (site GCTACTGCTGG)”, the “recombinant UMI read abundance (log10)” value turned out to be 0. Regarding “GCTACCCCATGGACCGGTTTTCCCGGTAATCCGTATTTGGA (site GCTACCCCTTC)”, the “recombinant UMI read abundance (log10)” value was found to be 0.0342. For the sequence “GCTACCGCATGGACCGGTTTTCCCGGTAATCCGTATTTGCC (site GCTACAGCTGG)”, the “recombinant UMI read abundance (log10)” value came to 0. In the case of “GCTACCGCATGGACCGGTTTTCCCGGTAATCCGTATTTGCC (site GCTACCGCTGG)”, the “recombinant UMI read abundance (log10)” value worked out at 1.61. With “GCTACCGCATGGACCGGTTTTCCCGGTAATCCGTATTTGCC (site GCTACGGCTGG)”, the “recombinant UMI read abundance (log10)” value worked out at 0.

With “GCTACCGCATGGACCGGTTTTCCCGGTAATCCGTATTTGCC (site GCTACTGCTGG)”, the “recombinant UMI read abundance (log10)” value turned out to be 0. For “GCTACGTCATGGACCGGTTTTCCCGGTAATCCGTATTTGTT (site GATACGTCTAA)”, the “recombinant UMI read abundance (log10)” value stood at 0.00849. On to “GCTACGTCATGGACCGGTTTTCCCGGTAATCCGTATTTGTT (site GCTACGTCTAA)”, for which the “recombinant UMI read abundance (log10)” value came out at 0.808. As for “GCTACGTCATGGACCGGTTTTCCCGGTAATCCGTATTTGTT (site GGTACGTCTAA)”, the “recombinant UMI read abundance (log10)” value was determined as 0.0111. As for “GCTACGTCATGGACCGGTTTTCCCGGTAATCCGTATTTGTT (site GTTACGTCTAA)”, the “recombinant UMI read abundance (log10)” value worked out at 0.0153. The value for “GCTACTGCATGGACCGGTTTTCCCGGTAATCCGTATTTGCT (site GCTACTGCTAG)” was 1.64; that for “GCTACTGCATGGACCGGTTTTCCCGGTAATCCGTATTTGCT (site GCTACTGCTCG)” was 0.00284. As to “GCTACTGCATGGACCGGTTTTCCCGGTAATCCGTATTTGCT (site GCTACTGCTGG)”, the “recombinant UMI read abundance (log10)” value stood at 0.

On to “GCTACTGCATGGACCGGTTTTCCCGGTAATCCGTATTTGCT (site GCTACTGCTTG)”, for which the “recombinant UMI read abundance (log10)” value was 0. “GCTAGTGCATGGACCGGTTTTCCCGGTAATCCGTATTTGGT (site ACTAGTGCTAC)”: the “recombinant UMI read abundance (log10)” value came to 1.31.

Regarding “GCTAGTGCATGGACCGGTTTTCCCGGTAATCCGTATTTGGT (site CCTAGTGCTAC)”, the “recombinant UMI read abundance (log10)” value stood at 1.65.

Take “GCTAGTGCATGGACCGGTTTTCCCGGTAATCCGTATTTGGT (site GCTAGTGCTAC)”: the “recombinant UMI read abundance (log10)” value is 1.73. The value for “GCTAGTGCATGGACCGGTTTTCCCGGTAATCCGTATTTGGT (site TCTAGTGCTAC)” was 0.581; that for “GCTATGGCATGGACCGGTTTTCCCGGTAATCCGTATTTGAA (site GCTATGGCTTT)” was 1.55. Take “GCTCCAACATGGACCGGTTTTCCCGGTAATCCGTATTTGAA (site GCTCCAACTTT)”: the “recombinant UMI read abundance (log10)” value amounted to 0.939. Then “GCTCCAACATGGACCGGTTTTCCCGGTAATCCGTATTTGTA (site GATCCAACTTA)”, with 0.0429. For the sequence “GCTCCAACATGGACCGGTTTTCCCGGTAATCCGTATTTGTA (site GCTCCAACTTA)”, the “recombinant UMI read abundance (log10)” value was found to be 0.877. Turning to “GCTCCAACATGGACCGGTTTTCCCGGTAATCCGTATTTGTA (site GGTCCAACTTA)”, the “recombinant UMI read abundance (log10)” value came to 0.0155. On to “GCTCCAACATGGACCGGTTTTCCCGGTAATCCGTATTTGTA (site GTTCCAACTTA)”, for which the “recombinant UMI read abundance (log10)” value amounted to 0.481. Then “GCTCCGACATGGACCGGTTTTCCCGGTAATCCGTATTTGGA (site GCTCCGACTTC)”, with 0.0323. With “GCTCGATCATGGACCGGTTTTCCCGGTAATCCGTATTTGGA (site GCTCGATCTTC)”, the “recombinant UMI read abundance (log10)” value worked out at 1.99. For the sequence “GCTCGTCCATGGACCGGTTTTCCCGGTAATCCGTATTTGAG (site GCTCGTCCTCT)”, the “recombinant UMI read abundance (log10)” value is 0.0111. Regarding “GCTCGTTCATGGACCGGTTTTCCCGGTAATCCGTATTTGAT (site GCTCGTTCTAT)”, the “recombinant UMI read abundance (log10)” value worked out at 1.25.

In the case of “GCTCTGTCATGGACCGGTTTTCCCGGTAATCCGTATTTGTT (site GCTCTGTCTAA)”, the “recombinant UMI read abundance (log10)” value came out at 1.59. Consider “GCTGAATCATGGACCGGTTTTCCCGGTAATCCGTATTTGCA (site GCTGAATCTTG)”, for which the “recombinant UMI read abundance (log10)” value is 1.83.

Turning to “GCTGACGCATGGACCGGTTTTCCCGGTAATCCGTATTTGAT (site GCTGACGCTAT)”, the “recombinant UMI read abundance (log10)” value amounted to 1.53.

For “GCTGCCTCATGGACCGGTTTTCCCGGTAATCCGTATTTGGT (site GCTGCCTCTAC)”, the “recombinant UMI read abundance (log10)” value turned out to be 0.342. “GCTGGTTCATGGACCGGTTTTCCCGGTAATCCGTATTTGTC (site GCTGGTTCTGA)”: the “recombinant UMI read abundance (log10)” value turned out to be 0.00915. Consider “GCTTATACATGGACCGGTTTTCCCGGTAATCCGTATTTGCT (site GCTTATACTAG)”, for which the “recombinant UMI read abundance (log10)” value came to 0. On to “GCTTGCCCATGGACCGGTTTTCCCGGTAATCCGTATTTGAG (site GCTTGCCCTAT)”, for which the “recombinant UMI read abundance (log10)” value was 0.0201.

As for “GCTTGCCCATGGACCGGTTTTCCCGGTAATCCGTATTTGAG (site GCTTGCCCTCT)”, the “recombinant UMI read abundance (log10)” value stood at 0.0701. “GCTTGCCCATGGACCGGTTTTCCCGGTAATCCGTATTTGAG (site GCTTGCCCTGT)”: the “recombinant UMI read abundance (log10)” value was found to be 0. Then “GCTTGCCCATGGACCGGTTTTCCCGGTAATCCGTATTTGAG (site GCTTGCCCTTT)”, with 0.107; and “GCTTGCCCATGGACCGGTTTTCCCGGTAATCCGTATTTGTT (site GCTTGCCCTAA)”, with 0.0266; and “GCTTGCCCATGGACCGGTTTTCCCGGTAATCCGTATTTGTT (site GCTTGCCCTAC)”, with 0.0939. Regarding “GCTTGCCCATGGACCGGTTTTCCCGGTAATCCGTATTTGTT (site GCTTGCCCTAG)”, the “recombinant UMI read abundance (log10)” value came to 0. The value for “GCTTGCCCATGGACCGGTTTTCCCGGTAATCCGTATTTGTT (site GCTTGCCCTAT)” was 0.013; that for “GCTTGGACATGGACCGGTTTTCCCGGTAATCCGTATTTGAC (site GATTGGACTGT)” was 0. The value for “GCTTGGACATGGACCGGTTTTCCCGGTAATCCGTATTTGAC (site GCTTGGACTGT)” was 2.39; that for “GCTTGGACATGGACCGGTTTTCCCGGTAATCCGTATTTGAC (site GGTTGGACTGT)” was 0.132; that for “GCTTGGACATGGACCGGTTTTCCCGGTAATCCGTATTTGAC (site GTTTGGACTGT)” was 0.707. For the sequence “GCTTGGCCATGGACCGGTTTTCCCGGTAATCCGTATTTGAT (site GCTTGACCTAT)”, the “recombinant UMI read abundance (log10)” value came to 0.00769. The value for “GCTTGGCCATGGACCGGTTTTCCCGGTAATCCGTATTTGAT (site GCTTGCCCTAT)” was 0.00795; that for “GCTTGGCCATGGACCGGTTTTCCCGGTAATCCGTATTTGAT (site GCTTGGCCTAT)” was 0.

Source of the values: the supplement of paper PMC11208160.
